In patent EP0377127B1, “Use of Myricetin-3-O-beta-D glucuronide as medicament” (Plantamed Arzneimittel GmbH, priority 1989, dated 1990):
Read-outs that look alike come from different tables or passages of the source.

Tests used:
PG-Biosynthese = assay: Prostaglandin biosynthesis in the perfused rabbit ear (labelled arachidonic acid, metabolites separated by TLC; RIA); type: cell-based, Kaninchen; details: for inhibition at 1 µg/mL: Oryctolagus cuniculus, read-out: hemmen die Biosynthese von PGI₂ und PGE₂
Source text: Methode: Perfundiertes Kaninchenohr mit C-Arachidonsäure, Vormarkierung und Messung der radioaktiven Metalboliten mittels Auftrennung durch DC. • 2.

[1] = system: Carrageenin-induzierte Rattenpfotenödem; assay: Carrageenin-induced rat paw oedema (acute inflammation model); type: in vivo, Ratte
Procedure: Zur Prüfung der entzündungshemmenden Wirkung dieser Substanz wird das Modell des Carrageenin-induzierten Rattenpfotenödems herangezogen, ein allgemein anerkanntes Modell zur Ermittlung anhand einer akuten Entzündung. Die entzündungshemmende Wirkung von vakuumgetrockneten und lyophilisierten Extrakten ist in Abb. 1 wiedergegeben. Bei der Anwendung von vakuumgetrocknetem Blattextrakt von Epilobium angustifolium wurde eine Dosis von 72 mg/kg Ratte, für sprühgetrockneten Blattextrakt eine Dosis von 136,47 mg/kg Ratte und für lyophilisierten Blattextrakt eine Dosis von 16,4 mg/kg Ratte eingesetzt. Das Ausmaß der entzündungswirkenden von vakuumgetrockneten und lyophilisierten Extrakten der in Abbildung 1 aufgezeigten Konzentrationen entspricht ca. 1 bis 2 mg Indometacin/kg Ratte.
Der Einfluß auf das Carrageenin-induzierte Rattenpfotenödem geht aus den Kurven in den Abbildungen 2 und 3 hervor. Abbildung 2 stellt unterschiedliche Dosen von HIMAK einander gegenüber, Abb. 3 dient dem Vergleich von HIMAK einer bestimmten Dosis mit einem wässrigen Auszug von Epilobium und Indometacin. Der Darstellung des Einflusses der erfindungsgemäßen Substanz auf die Prostaglandin-Biosynthese am pharmakologischen Modell nach ISAKSON, modifiziert nach JUAN und SAMETZ am perfundierten Kaninchenohr sowie mittels Radioimmunoassay (RIA) dienen die Abbildungen 4 und 5.

Magenschleimhaut = assay: Preliminary examination of gastric mucosa damage after peroral dosing; type: in vivo; details: 1 mg/kg, preliminary examinations
Source text: Es ist gesicherte Erkenntnis, daß Cyclooxygenase-Hemmer, also Hemmer der Biosynthese von Prostaglandinen, wie etwa Indo, die Magenschleimhaut schädigen können. […] Im Ergebnis liefern diese Untersuchungen einen Hinweis auf die wesentlich günstiger zu beurteilende Frage der Toxizität von HIMAK.

Row | Structure (SMILES) | inhibition at 1 µg/mL (PG-Biosynthese; 1 »g/ml (Endkonzentration) Indo, ca. 1 »g/ml HIMAK, perfused rabbit ear) | Hemmung der Biosynthese von Prostaglandinen (in words) (PG-Biosynthese; dose-dependent) | Hemmung der PG-Biosynthese im Vergleich mit Indo (in words) (PG-Biosynthese; weight basis, similar concentration as Indo (Abb. 4)) | Dosisbereich, der das Carrageenin-Pfotenödem ähnlich stark reduziert wie 1 mg/kg Indomethacin (p.o.) ([1]; compared with 1 mg/kg Indomethacin p.o.) | Hemmung der experimentellen akuten Entzündung (Rattenpfotenödem mit Carrageenin) (in words) ([1]; dose-dependent) | Wirksamkeit im Vergleich mit der Referenzsubstanz Indo auf Gewichtsbasis (in words) ([1]; first experiments, weight basis) | so wirksam wie Indo, auf geschätzter Molekulargewichtsbasis ([1]; potency relative to Indo, estimated molecular weight basis) | so wirksam wie Indo, auf Gewichtsbasis ([1]; potency relative to Indo, weight basis) | Bildung kleiner Erosionen in der Magenschleimhaut (Magenschleimhaut) | inhibition at 1 µg/mL (PG-Biosynthese)
1 | O=C(O)[C@H]1O[C@@H](Oc2c(-c3cc(O)c(O)c(O)c3)oc3cc(O)cc(O)c3c2=O)[C@H](O)[C@@H](O)[C@@H]1O [HIMAK, Myricetin-3-0-β-D-glucuronid] | > 80% | deutlich hemmen | in etwa gleichem Ausmaß gehemmt | 40 - 200 »g/kg KG | deutlich hemmen | wesentlich wirksamer | ~5 mal | ≥ 10 mal | nicht der Fall | –
2 | COc1ccc2c(c1)c(CC(=O)O)c(C)n2C(=O)c1ccc(Cl)cc1 [Indo, Indometacin, reference compound] | – | – | – | – | – | – | – | – | Bildung kleiner Erosionen in der Magenschleimhaut | > 80%
